Tested on: Alternaria solani
Test: Activity against early blight of tomato caused by Alternaria solani
Type: in vivo
Conditions: 250 ppm, spray on tomato leaves, rated after 5 days; untreated control 80% infected
Experimental: The active compounds were formulated separately as a stock solution comprising 0.25% by weight of active compound in acetone or DMSO. 1% by weight of the emulsifier Uniperol® EL (wetting agent having emulsifying and dispersing action based on ethoxylated alkylphenols) was added to this solution. The stock solutions of the active compounds were diluted with water to the stated concentration. Leaves of potted plants of the cultivar “Golden Princess” were sprayed to runoff point with an aqueous suspension having the concentration of active compound stated below. The next day, the leaves were infected with an aqueous spore suspension of Alternaria solani in 2% biomalt solution having a density of 0.17×10^6 spore/ml. The plants were then placed in a water-vapor saturated chamber at temperatures between 20 and 22° C. After 5 days, the blight on the untreated, but infected control plants had developed to such an extent that the infection could be determined visually in %.

## CCC(C)Cc1c(-c2c(F)cc(F)cc2F)c(C)nc2nc(OC)nn12 (stereo not shown) [I-11, 2-Methoxy-5-methyl-6-(2,4,6-trifluorophenyl)-7-(2-methylbutyl)-1,2,4-triazolo[1,5a]pyrimidine]
  infection of the leaves, determined visually: < 10%

— patent US20060217400A1, “Triazolopyrimidines, methods for the production thereof, use thereof for controlling harmful fungi, and substances containing said triazolopyrimidines” (priority 2002, published 2006)
